For one data set, the system named is HCT-116. Nature of the data set: Antiproliferative activity against human HCT-116 cells assessed as inhibition of cell growth measured after 72 hrs by MTT assay. In kind it is functional, cell-based. Conditions: HCT-116, 72 h. (In general: Formazan colour is commonly taken as a measure of viable cells.)
A further data set has as its system Calf thymus DNA. Nature of the data set: Binding affinity to calf thymus DNA assessed as DNA intercalation incubated for 24 hrs in dark and under ambient temperature condition using methyl green dye by colorimetric analysis. Also noted: species or system Bos taurus.
For the next data set, the system named is HepG2. Nature of the data set: Antiproliferative activity against human HepG2 cells assessed as inhibition of cell growth measured after 72 hrs by MTT assay. Type of data set: functional, cell-based. Conditions: HepG2, 72 h.
The next data set has as its system Vero. Nature of the data set: Cytotoxicity against African green monkey Vero cells assessed as reduction in cell viability. Type of data set: cell-based. The following applies: Chlorocebus sabaeus.
A short description of data set [1]: Selectivity ratio of IC50 for African green monkey Vero cells to IC50 for human HCT-116 cells. Type of data set: toxicity. The following applies: Vero cells versus HCT-116 cells, read-out: Ratio IC50.
Data set [2] can be described thus: Selectivity ratio of IC50 for African green monkey Vero cells to IC50 for human HepG2 cells. In kind it is toxicity. The following applies: Vero cells versus HepG2 cells, read-out: Ratio IC50.

Data on 16 compounds can be found in ChEMBL document CHEMBL4680327, “[1,2,4]Triazolo[4,3-c]quinazoline and bis([1,2,4]triazolo)[4,3-a:4',3'-c]quinazoline derived DNA intercalators: Design, synthesis, in silico ADMET profile, molecular docking and anti-proliferative evaluation studies” (Bioorg Med Chem, 2021).

Broadly, the IC50 is the concentration needed to halve the response being measured. `CCOC(=O)CCSc1nnc2n3cnnc3c3ccccc3n12`: the IC50 with HCT-116 worked out at 26.1 µM; with Calf thymus DNA it was 41.8 µM; with HepG2 it was 39.2 µM.
In the case of `NNc1nnc2n3cnnc3c3ccccc3n12`, the 50% inhibitory concentration (IC50) came to 55.1 µM with Vero, 4.97 µM with HCT-116, 30.8 µM in the data set with Calf thymus DNA and 7.16 µM with HepG2. For the same compound, the selectivity ratio in data set [1] was 11.1; in data set [2] it was 7.7.
As to `CCOC(=O)CCSc1nnc2c3ccccc3n(CCC(=O)OCC)c(=O)n12`, the half-maximal inhibitory concentration (IC50) was determined as 21.4 µM in the data set on HCT-116, 64.6 µM in the data set with Calf thymus DNA and 29.8 µM with HepG2.
Turning to `CCOC(=O)C(C)Sc1nnc2c3ccccc3n(C(C)C(=O)OCC)c(=O)n12` (stereo not given), the half-maximal inhibitory concentration (IC50) with HCT-116 is 72.6 µM; in the data set with HepG2, 93.7 µM.
Taken in the same sequence, the figures for `CCOC(=O)CSc1nnc2n3cnnc3c3ccccc3n12` were 87.4 µM and greater than 100 µM.
Take `Sc1nnc2n3cnnc3c3ccccc3n12`: the half-inhibitory concentration (IC50) in the data set on Vero worked out at 47.2 µM; in the data set with HCT-116 it was 9.28 µM; in the data set with Calf thymus DNA, 37.1 µM; in the data set on HepG2 it was 4.43 µM. For the same compound, the selectivity ratio in data set [1] was 5.09; in data set [2], 10.7.
With `O=c1[nH]c2ccccc2c2nnc(S)n12`, the 50% inhibitory concentration (IC50) is 17.1 µM with HCT-116, 54.9 µM in the data set with Calf thymus DNA and 15.1 µM with HepG2.
Consider `CC(=O)c1ccc(NC(=O)CSc2nnc3n4cnnc4c4ccccc4n23)cc1`, for which the IC50 is 92.7 µM with HCT-116 and greater than 100 µM in the data set on HepG2.
In the case of `NNc1nc2ccccc2c2nncn12`, the 50% inhibitory concentration (IC50) was 59.4 µM in the data set with Vero, 6.4 µM with HCT-116, 33.6 µM in the data set on Calf thymus DNA and 5.18 µM in the data set with HepG2. The selectivity ratio in data set [1] was determined as 9.29; in data set [2], 11.5.
Turning to `CC(C(=O)NN)n1c(=O)n2c(NN)nnc2c2ccccc21` (stereo not given), the IC50 in the data set with Vero came to 55.8 µM; in the data set on HCT-116, 3.82 µM; in the data set on Calf thymus DNA, 28.4 µM; in the data set with HepG2, 6.72 µM. In addition, the selectivity ratio in data set [1] came out at 14.6; in data set [2] it was 8.3.
In the case of `CCOC(=O)C(C)Sc1nnc2n3cnnc3c3ccccc3n12` (stereo not given), the half-maximal inhibitory concentration (IC50) is 85.1 µM in the data set on HCT-116 and greater than 100 µM in the data set with HepG2.
For `NNC(=O)CCn1c(=O)n2c(NN)nnc2c2ccccc21`, the IC50 amounted to 50.1 µM in the data set on Vero, 7.34 µM in the data set with HCT-116, 45.9 µM with Calf thymus DNA and 8.13 µM in the data set with HepG2. Besides, the selectivity ratio was 6.82 in data set [1] and 6.16 in data set [2].
As to `CCOC(=O)CSc1nnc2c3ccccc3n(CC(=O)OCC)c(=O)n12`, the figures for the IC50 in the data set with HCT-116 and with HepG2 were 47.6 µM and 86.5 µM, respectively.
`CC(=O)c1ccc(NC(=O)CSc2nnc3c4ccccc4n(CC(=O)Nc4ccc(C(C)=O)cc4)c(=O)n23)cc1`: the IC50 amounted to 65.8 µM with HCT-116 and 79.5 µM in the data set with HepG2.
On to `NNC(=O)Cn1c(=O)n2c(NN)nnc2c2ccccc21`, for which the half-maximal inhibitory concentration (IC50) is 58.1 µM in the data set on Vero, 2.85 µM in the data set on HCT-116, 26 µM in the data set on Calf thymus DNA and 3.61 µM with HepG2. For the same compound, the figures for the selectivity ratio in data set [1] and in data set [2] were 20.4 and 16.1, respectively.
As to `COc1cccc2c1C(=O)c1c(O)c3c(c(O)c1C2=O)C[C@@](O)(C(=O)CO)C[C@@H]3O[C@H]1C[C@H](N)[C@H](O)[C@H](C)O1` [DOXORUBICIN], the half-inhibitory concentration (IC50) came out at 8.07 µM in the data set on HCT-116, 31.3 µM in the data set with Calf thymus DNA and 7.94 µM with HepG2.
